Measured values as given in article PMC9497135, “Structure-Based Study to Overcome Cross-Reactivity of Novel Androgen Receptor Inhibitors” (Cells, 2022).
Numbering of substitutions follows the chain as printed.

Legend:
[1] = system: AR with T878A and W742C mutations; parameters: method as in PMID 12517791; settings: cited from earlier work
[2] = biological target: T1, AR (LNCaP cells, which carry the T878A AR mutation) (Homo sapiens, UniProt P10275, T878A); assay: eGFP cellular AR transcription assay in LNCaP cells (LN-ARR2PB-eGFP); assay type: cell-based; settings: for Anti-AR activity in eGFP assay: eGFP-expressing LNCaP cells; for Partial agonistic effect in eGFP assay: with R1881, high concentrations
T1 construct: LNCaP cells, which carry the T878A AR mutation; endogenous in cells; host or cells: LNCaP (LN-ARR2PB-eGFP)
T1 sequence (P10275 1-920 T878A): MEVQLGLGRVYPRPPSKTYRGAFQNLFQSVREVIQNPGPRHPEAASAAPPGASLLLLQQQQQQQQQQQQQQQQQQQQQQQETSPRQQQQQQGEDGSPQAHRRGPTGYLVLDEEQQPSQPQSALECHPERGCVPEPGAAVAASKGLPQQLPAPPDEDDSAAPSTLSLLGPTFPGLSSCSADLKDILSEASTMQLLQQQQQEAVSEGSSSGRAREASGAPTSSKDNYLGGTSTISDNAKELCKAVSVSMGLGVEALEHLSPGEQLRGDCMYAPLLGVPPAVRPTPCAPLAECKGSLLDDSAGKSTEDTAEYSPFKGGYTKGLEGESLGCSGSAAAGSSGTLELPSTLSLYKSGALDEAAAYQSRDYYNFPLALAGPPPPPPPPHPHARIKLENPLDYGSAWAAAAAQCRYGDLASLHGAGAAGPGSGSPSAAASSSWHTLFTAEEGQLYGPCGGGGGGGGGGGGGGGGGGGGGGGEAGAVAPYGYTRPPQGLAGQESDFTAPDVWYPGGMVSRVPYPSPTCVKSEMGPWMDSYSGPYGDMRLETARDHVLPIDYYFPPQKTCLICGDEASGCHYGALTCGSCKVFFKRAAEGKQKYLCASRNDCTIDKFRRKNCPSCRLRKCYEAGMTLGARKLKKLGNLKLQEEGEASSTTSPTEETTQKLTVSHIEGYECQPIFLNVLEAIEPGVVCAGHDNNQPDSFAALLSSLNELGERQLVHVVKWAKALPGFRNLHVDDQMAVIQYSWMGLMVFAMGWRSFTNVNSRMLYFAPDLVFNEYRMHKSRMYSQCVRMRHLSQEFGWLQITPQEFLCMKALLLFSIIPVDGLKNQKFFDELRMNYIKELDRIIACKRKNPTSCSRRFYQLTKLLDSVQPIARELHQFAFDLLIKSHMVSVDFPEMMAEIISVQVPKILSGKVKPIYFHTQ
Method: AR transcriptional activity was assayed as previously described. Briefly, LNCaP human prostate cancer cells (LN-ARR2PB-eGFP), stably transfected with eGFP reporter driven by an androgen responsive probasin-derived promoter (ARR2PB), were grown in phenol red free RPMI 1640 media supplemented with 5% charcoal stripped serum (CSS). After 5 days, the cells were plated into a 96-well plate (35,000 cells/well) with 0.1 nM of the synthetic androgen R1881 and increasing concentrations (0−100 μM) of test compounds. Fluorescence (excitation 485 nm, emission 535 nm) was measured after 3 days of incubation with the compounds.

Androgen Receptor ABS = biological target: T2, Androgen Receptor ABS (Rattus norvegicus, UniProt P15207); assay: Androgen (DHT) displacement, Polar Screen Androgen Receptor Competitor Green Assay Kit; assay type: binding; settings: for Androgen displacement: at 50 µM; for Androgen Displacement (Yes/No): fluorescence polarization kit
T2 construct: purchased
T2 sequence (P15207 647-902 limits assumed): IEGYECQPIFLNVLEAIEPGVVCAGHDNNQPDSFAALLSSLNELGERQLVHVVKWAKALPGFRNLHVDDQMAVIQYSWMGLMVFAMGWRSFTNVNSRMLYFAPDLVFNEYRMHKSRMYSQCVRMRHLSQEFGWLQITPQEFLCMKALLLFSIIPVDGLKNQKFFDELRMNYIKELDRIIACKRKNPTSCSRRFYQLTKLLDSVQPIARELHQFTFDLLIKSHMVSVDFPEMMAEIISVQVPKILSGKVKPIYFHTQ
Method: Androgen displacement was assessed with the Polar Screen Androgen Receptor Competitor Green Assay Kit as per the instructions of the manufacturer.

wild type AR LBD = biological target: T3, wild type AR LBD (Homo sapiens, UniProt P10275); assay: Biolayer interferometry (BLI), wild type LBD; assay type: binding
T3 construct: made in house; host or cells: E. coli BL21-DE3 co-transformed with pBirACm
T3 sequence (P10275 669-900 limits assumed): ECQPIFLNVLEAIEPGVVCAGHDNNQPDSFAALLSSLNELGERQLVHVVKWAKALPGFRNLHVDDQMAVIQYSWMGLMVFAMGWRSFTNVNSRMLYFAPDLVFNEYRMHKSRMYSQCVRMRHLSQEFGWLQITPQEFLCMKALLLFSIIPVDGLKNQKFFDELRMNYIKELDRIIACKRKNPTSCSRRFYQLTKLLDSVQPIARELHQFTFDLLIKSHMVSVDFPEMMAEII
Method: (§1) The direct reversible interaction between small molecules and the AR was quantified by BLI using OctetRED (ForteBio, Fremont, CA, USA). The wild type and T878A-LDB in fusion with an N-terminal (His)6-avidin ([…]) tag were expressed in E. coli BL21-DE3 cells co-transformed with pBirACm plasmid (Avidity), which expresses a biotin ligase leading to the biotynilation of the avidin tag on the LBD. Cells were grown in LB media at 37 °C to an OD600nm = 0.5 and then induced with 0.5 mM isopropyl-β-D-thiogalactoside. A measure of 20 µM of dihydrotestosterone (DHT) and 0.15 mM biotin were added and the cells were incubated at 16 °C for 18 to 20 h. Cells were then resuspended and lysed in buffer containing 500 mM Li2SO4, 50mM HEPES pH7.2, 10% Glycerol, 0.1% Octyl-beta-Glucoside, 20 µM of DHT, 5 mM β-mercaptoethanol, 10 mM imidazole and 0.1 mM phenylmethanesulfonyl fluoride. […] After an overnight dialysis against 150 mM Li2SO4, 50 mM HEPES pH7.2, 10% Glycerol, 0.1% Octyl-beta-Glucoside, 20 µM of DHT and 0.2 mM tris(2-carboxyethyl)phosphine, purified proteins at 50 µg/mL were bound to the super-streptavidin sensors overnight at 4 °C. The assay was performed at 20 °C in the dialysis buffer supplemented with 5% dimethyl sulfoxide (DMSO) which was also used as our reference measurement.

T878A-AR mutant = biological target: T4, T878A-AR mutant (Homo sapiens, UniProt P10275, T878A); assay: Luciferase reporter assay, PC3 cells transfected with T878A-AR; assay type: cell-based; settings: T878A-AR, high concentrations, absence of R1881
T4 construct: Full-length human wild type AR was cloned into pcDNA3.1 expression plasmid; expressed in transfected cells; host or cells: PC3
T4 sequence (P10275 1-920 T878A): T1 sequence (P10275 1-920 T878A)
Method: Full-length human wild type AR was cloned into pcDNA3.1 expression plasmid (Invitrogen, Waltham, MA, USA) with a CMV promoter. The T878A mutant (T878A-AR) was generated with the Quikchange Mutagenesis Kit (Stratagene, San Diego, CA, USA) using hARWT plasmid as a template. Androgen-starved PC3 cells were seeded in 96-well plates (3000 cells/well) in RPMI 1640 + 5% CSS for 24 h followed by transfection with 50 ng of hARWT or hART878A along with 50 ng of ARR3tk-luciferase reporter construct (100 ng total plasmid DNA) and 0.3 µL/well TransIT20/20 transfection reagent (TT2020, Mirus, Madison, Wisconsin, WI, USA) for 48 h. […] Cell lysis was carried out with 60 µL 1X passive lysis buffer/well (Promega, Madison, Wisconsin, WI, USA). The luminescence from 20 µL of cell lysate and 50 µL of Luciferase assay reagent (Promega, Madison, Wisconsin, WI, USA) was recorded on a TECAN M200pro plate reader.

T878A AR LBD = biological target: T5, T878A AR LBD (Homo sapiens, UniProt P10275, T878A); assay: Biolayer interferometry (BLI), T878A LBD; assay type: binding
T5 construct: made in house; host or cells: E. coli BL21-DE3 co-transformed with pBirACm
T5 sequence (P10275 669-900 T878A limits assumed): T3 sequence (P10275 669-900 limits assumed) with T210A
Method: as §1

[3] = LNCaP eGFP reporter (ARR2PB promoter), 0.1 nM R1881, 3 days

Row | SMILES | Reporter eGFP IC50 [2, 3] | Anti-AR activity in eGFP assay [2] | Partial agonistic effect in eGFP assay ([2]; LNCaP) | Androgen displacement (Androgen Receptor ABS) | Androgen Displacement (Yes/No) (Androgen Receptor ABS) | also measured
1 | C[C@](O)(CS(=O)(=O)c1ccc(F)cc1)C(=O)Nc1ccc(C#N)c(C(F)(F)F)c1 [R-bicalutamide] |  |  |  |  |  | Agonist behaviour on mutated AR [1]: acts as an agonist only when the T878A mutation is also coupled with W742C
2 | c1cc2c(cc1-c1csc(N3CCOCC3)n1)CCCC2 [VPC14291] | inactive | lost their anti-AR activity |  |  |  | 
3 | c1sc(N2CCOCC2)nc1C1CCCC1 [VPC14403] | inactive | lost their anti-AR activity |  |  |  | 
4 | c1cc(-c2csc(N3CCOCC3)n2)cs1 [VPC14404] |  | maintained good potency | no undesired partial agonistic effects were observed | <10% |  | 
5 | c1sc(N2CCOCC2)nc1C1CCCCC1 [VPC14406] | inactive | lost their anti-AR activity |  |  |  | 
6 | c1cc(-c2csc(N3CCOCC3)n2)ccn1 [VPC14435] |  | maintained good potency | no undesired partial agonistic effects were observed |  | No | 
7 | c1ccc(-c2csc(N3CCOCC3)n2)nc1 [VPC14436] |  |  |  |  | No | 
8 | c1cncc(-c2csc(N3CCOCC3)n2)c1 [VPC14439] |  |  |  | 30% | Yes | Concentration above which partial agonism is seen in the eGFP assay ([2]; LNCaP, 0.1 nM R1881): above 3 µM
9 | Brc1ncn(-c2csc(N3CCOCC3)n2)c1Br [VPC14449] |  | maintained good potency | no undesired partial agonistic effects were observed | < 10% |  | IC50 [2, 3]: 0.15 ± 0.04 µM; Direct binding to wild-type LBD by BLI (wild type AR LBD): not binding; Androgen displacement (Androgen Receptor ABS; listed as 14449): <10%; Reduction of AR stimulation in comparison with VPC14368 (T878A-AR mutant): ~ 80%; Direct binding to T878A LBD by BLI (T878A AR LBD): not binding
